The text below walks through data of patent US8501433B2, “Solvent for chromogenic substrate solution” (Pierce Biotechnology, Inc., priority 2002, dated 2013).

The nature of the data set: Dissolution of X-gal (and antibiotics) in non-toxic solvents. Conditions: non-toxic solvent solutions of the invention. It counts as physicochemical. The method, then:
A combination of essential oil was extracted with chloroform in order to remove part of the oil phase, and create a semi-precipitated emulsion. For example, 20 ml of citrus extract, pine terpenoids, limonene oils and linseed oil was mixed with 20 ml of Chloroform by vigorously shaking in a 50 ml falcon tube. The resulting mix was let stand for approximately one day, and then the upper phase was transferred to a 15 ml falcon tube.
`CC1(C)S[C@@H]2[C@H](NC(=O)[C@H](N)c3ccccc3)C(=O)N2[C@H]1C(=O)O` [Ampicillin]: the “dissolution in the same solutions as X-gal” value (shortened to “dissolution”) is given as “stable dissolution”.

For `O=C(N[C@H](CO)[C@H](O)c1ccc([N+](=O)[O-])cc1)C(Cl)Cl` [Chloramphenicol], the “dissolution” value is listed as “stable dissolution”.

Take `CN(C)[C@@H]1C(=O)C(C(N)=O)=C(O)[C@@]2(O)C(=O)C3=C(O)c4c(O)cccc4[C@@](C)(O)[C@H]3C[C@@H]12` [Tetracyclin]: the “dissolution” value was “stable dissolution”.
